Test results: patent US20240262819A1, “NOVEL COMPOUNDS HAVING INHIBITORY ACTIVITY AGAINST GLUCOSYLCERAMIDE SYNTHASE OR PHARMACEUTICALLY ACCEPTABLE SALT THEREOF, PROCESSES FOR PREPARING THE SAME, AND PHARMACEUTICAL COMPOSITIONS COMPRISING THE SAME” (YUHAN CORPORATION, priority 2021, published 2024)
pIC50: −log10 of the molar value. Like-named read-outs stand apart in the source and are kept apart here.

What was measured:
[1] = target: glucosylceramide synthase (GCS) (Homo sapiens (Human), UniProt Q16739); assay: Evaluation of inhibitory activities against GCS (A549 cell lysate, NBD C6-ceramide, HPLC); type: biochemical
glucosylceramide synthase (GCS), sequence (Q16739 whole entry): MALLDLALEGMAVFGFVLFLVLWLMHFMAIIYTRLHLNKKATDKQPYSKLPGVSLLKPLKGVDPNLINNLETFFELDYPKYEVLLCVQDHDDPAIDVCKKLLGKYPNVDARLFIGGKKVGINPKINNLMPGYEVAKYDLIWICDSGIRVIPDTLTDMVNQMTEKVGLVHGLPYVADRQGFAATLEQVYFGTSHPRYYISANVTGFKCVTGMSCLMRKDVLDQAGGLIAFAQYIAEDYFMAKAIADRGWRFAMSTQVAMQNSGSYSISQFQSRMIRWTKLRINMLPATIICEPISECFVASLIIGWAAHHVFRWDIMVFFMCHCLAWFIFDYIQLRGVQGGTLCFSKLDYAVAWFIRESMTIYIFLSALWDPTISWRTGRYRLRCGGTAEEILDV
Summary of the method: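 GCS activity in A549 cell lysate (50 mM HEPES, pH 7.3) with NBD C6-ceramide, reacted 90 min at 37 °C. Lipids were chloroform/methanol-extracted and separated by normal-phase HPLC with fluorescence detection (ex 470/em 530 nm). GlcCer fraction of peak area was normalized between DMSO and ibiglustat, and IC50 obtained by curve fitting.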

[2] = tested on: GM1 production in Jurkat cells; assay: cells; type: cell-based
[3] = % GCS activity, A549 cell lysate, 37° C. for 90 minutes, read-out: IC50

Row | SMILES | pIC50 [1, 3] | pIC50 ([2]; read-out: IC50) | pIC50 [1] | pIC50 ([2]; Homo sapiens, Jurkat, 72 h)
1 | CCCOc1ccc(-c2ccc3c(c2)CCC(C)(C)[C@H]3NC(=O)O[C@@H]2CN3CCC2CC3)cc1 [Example 144, (S)-quinuclidin-3-yl((R)-2,2-dimethyl-6-(4-propoxyphenyl)-1,2,3,4-tetrahydronaphthalen-1-yl) carbamate] | 9.38 | 8.64 | – | –
2 | CCCCOc1ccc(-c2ccc3c(c2)CCC(C)(C)[C@H]3NC(=O)O[C@@H]2CN3CCC2CC3)cc1 [Example 145, (S)-quinuclidin-3-yl((R)-6-(4-butoxyphenyl)-2,2-dimethyl-1,2,3,4-tetrahydronaphthalen-1-yl)carbamate] | – | – | 9.54 | 9.52
3 | CC(C)COc1ccc(-c2ccc3c(c2)CCC(C)(C)[C@H]3NC(=O)O[C@@H]2CN3CCC2CC3)cc1 [Example 146, (S)-quinuclidin-3-yl((R)-6-(4-isobutoxyphenyl)-2,2-dimethyl-1,2,3,4-tetrahydronaphthalen-1-yl)carbamate] | – | – | 9.77 | 9.17
4 | COc1c(C)cc(-c2ccc3c(c2)CCC(C)(C)[C@H]3NC(=O)O[C@@H]2CN3CCC2CC3)cc1C [Example 147, (S)-quinuclidin-3-yl((R)-6-(4-methoxy-3,5-dimethylphenyl)-2,2-dimethyl-1,2,3,4-tetrahydronaphthalen-1-yl) carbamate] | 8.93 | 8.03 | – | –
5 | Cc1cc(-c2ccc3c(c2)CCC(C)(C)[C@H]3NC(=O)O[C@@H]2CN3CCC2CC3)cc(C)c1OC(C)C [Example 149, (S)-quinuclidin-3-yl((R)-6-(4-isopropoxy-3,5-dimethylphenyl)-2,2-dimethyl-1,2,3,4-tetrahydronaphthalen-1-yl) carbamate] | 8.75 | 7.84 | – | –
6 | CCCCOc1c(C)cc(-c2ccc3c(c2)CCC(C)(C)[C@H]3NC(=O)O[C@@H]2CN3CCC2CC3)cc1C [Example 152, (S)-quinuclidin-3-yl((R)-6-(4-butoxy-3,5-dimethylphenyl)-2,2-dimethyl-1,2,3,4-tetrahydronaphthalen-1-yl)carbamate] | – | – | 8.78 | 8.08
7 | COc1cccc(-c2ccc3c(c2)CCC(C)(C)[C@H]3NC(=O)O[C@@H]2CN3CCC2CC3)c1 [Example 153, (S)-quinuclidin-3-yl((R)-6-(3-methoxyphenyl)-2,2-dimethyl-1,2,3,4-tetrahydronaphthalen-1-yl)carbamate] | – | – | 9.49 | 8.68
8 | CCOc1cccc(-c2ccc3c(c2)CCC(C)(C)[C@H]3NC(=O)O[C@@H]2CN3CCC2CC3)c1 [Example 154, (S)-quinuclidin-3-yl((R)-6-(3-ethoxyphenyl)-2,2-dimethyl-1,2,3,4-tetrahydronaphthalen-1-yl)carbamate] | – | – | 9.42 | 8.54
9 | CCCCOc1cccc(-c2ccc3c(c2)CCC(C)(C)[C@H]3NC(=O)O[C@@H]2CN3CCC2CC3)c1 [Example 155, (S)-quinuclidin-3-yl((R)-6-(3-butoxyphenyl)-2,2-dimethyl-1,2,3,4-tetrahydronaphthalen-1-yl)carbamate] | – | – | 9.41 | 9.15
10 | CC(C)Cc1cccc(-c2ccc3c(c2)CCC(C)(C)[C@H]3NC(=O)O[C@@H]2CN3CCC2CC3)c1 [Example 157, (S)-quinuclidin-3-yl((R)-6-(3-isobutylphenyl)-2,2-dimethyl-1,2,3,4-tetrahydronaphthalen-1-yl)carbamate] | – | – | 9.09 | 8.58
11 | CCCOc1cccc(-c2ccc3c(c2)CCC(C)(C)[C@H]3NC(=O)O[C@@H]2CN3CCC2CC3)c1 [Example 159, (S)-quinuclidin-3-yl((R)-2,2-dimethyl-6-(3-propoxyphenyl)-1,2,3,4-tetrahydronaphthalen-1-yl)carbamate] | – | – | 8.37 | 8.77
12 | CC(C)Cc1ccc(-c2ccc3c(c2)CCC(C)(C)[C@H]3NC(=O)O[C@@H]2CN3CCC2CC3)cc1 [Example 160, (S)-quinuclidin-3-yl((R)-6-(4-isobutylphenyl)-2,2-dimethyl-1,2,3,4-tetrahydronaphthalen-1-yl)carbamate] | – | – | 8.30 | 8.52
13 | CC(C)COc1cccc(-c2ccc3c(c2)CCC(C)(C)[C@H]3NC(=O)O[C@@H]2CN3CCC2CC3)c1 [Example 163, (S)-quinuclidin-3-yl((R)-6-(3-isobutoxyphenyl)-2,2-dimethyl-1,2,3,4-tetrahydronaphthalen-1-yl)carbamate] | – | – | 8.09 | 8.89
14 | CCOc1c(C)cc(-c2ccc3c(c2)CCC(C)(C)[C@H]3NC(=O)O[C@@H]2CN3CCC2CC3)cc1C [Example 164, (S)-quinuclidin-3-yl((R)-6-(4-ethoxy-3,5-dimethylphenyl)-2,2-dimethyl-1,2,3,4-tetrahydronaphthalen-1-yl)carbamate] | – | – | 8.86 | 8.08
15 | COc1ccc(-c2ccc3c(c2)CCC(C)(C)[C@H]3NC(=O)O[C@@H]2CN3CCC2CC3)cc1 [Example 166, (S)-quinuclidin-3-yl((R)-6-(4-methoxyphenyl)-2,2-dimethyl-1,2,3,4-tetrahydronaphthalen-1-yl)carbamate] | – | – | 9.16 | 8.23
16 | CC(C)Oc1ccc(-c2ccc3c(c2)CCC(C)(C)[C@H]3NC(=O)O[C@@H]2CN3CCC2CC3)cc1 [Example 167, (S)-quinuclidin-3-yl((R)-6-(4-isopropoxyphenyl)-2,2-dimethyl-1,2,3,4-tetrahydronaphthalen-1-yl)carbamate] | – | – | 9.43 | 8.50
17 | CCc1ccc(-c2ccc3c(c2)CCC(C)(C)[C@H]3NC(=O)O[C@@H]2CN3CCC2CC3)cc1F [Example 169, (S)-quinuclidin-3-yl((R)-6-(4-ethyl-3-fluorophenyl)-2,2-dimethyl-1,2,3,4-tetrahydronaphthalen-1-yl)carbamate] | – | – | 9.85 | 8.77
18 | CCc1ccc(-c2cc3c(cc2F)[C@H](NC(=O)O[C@@H]2CN4CCC2CC4)C(C)(C)CC3)cc1 [Example 170, (S)-quinuclidin-3-yl((R)-6-(4-ethylphenyl)-7-fluoro-2,2-dimethyl-1,2,3,4-tetrahydronaphthalen-1-yl)carbamate] | – | – | 9.51 | 8.85
19 | CCCCc1ccc(-c2cc3c(cc2F)[C@H](NC(=O)O[C@@H]2CN4CCC2CC4)C(C)(C)CC3)cc1 [Example 173, (S)-quinuclidin-3-yl((R)-6-(4-butylphenyl)-7-fluoro-2,2-dimethyl-1,2,3,4-tetrahydronaphthalen-1-yl)carbamate] | – | – | 9.62 | 9.52
20 | CC(C)Cc1ccc(-c2cc3c(cc2F)[C@H](NC(=O)O[C@@H]2CN4CCC2CC4)C(C)(C)CC3)cc1 [Example 174, (S)-quinuclidin-3-yl((R)-7-fluoro-6-(4-isobutylphenyl)-2,2-dimethyl-1,2,3,4-tetrahydronaphthalen-1-yl)carbamate] | – | – | 9.46 | 9.05
21 | CCCCOc1ccc(-c2cc3c(cc2F)[C@H](NC(=O)O[C@@H]2CN4CCC2CC4)C(C)(C)CC3)cc1 [Example 178, (S)-quinuclidin-3-yl((R)-6-(4-butoxyphenyl)-7-fluoro-2,2-dimethyl-1,2,3,4-tetrahydronaphthalen-1-yl)carbamate] | – | – | 9.66 | 9.40
22 | CC(C)COc1ccc(-c2cc3c(cc2F)[C@H](NC(=O)O[C@@H]2CN4CCC2CC4)C(C)(C)CC3)cc1 [Example 179, (S)-quinuclidin-3-yl((R)-7-fluoro-6-(4-isobutoxyphenyl)-2,2-dimethyl-1,2,3,4-tetrahydronaphthalen-1-yl)carbamate] | – | – | 9.72 | 9.66
23 | Cc1cc(-c2cc3c(cc2F)[C@H](NC(=O)O[C@@H]2CN4CCC2CC4)C(C)(C)CC3)cc(C)c1OC(C)C [Example 182, (S)-quinuclidin-3-yl((R)-7-fluoro-6-(4-isopropoxy-3,5-dimethylphenyl)-2,2-dimethyl-1,2,3,4-tetrahydronaphthalen-1-yl)carbamate] | – | – | 8.51 | 7.89
24 | CCCCOc1c(C)cc(-c2cc3c(cc2F)[C@H](NC(=O)O[C@@H]2CN4CCC2CC4)C(C)(C)CC3)cc1C [Example 183, (S)-quinuclidin-3-yl((R)-6-(4-butoxy-3,5-dimethylphenyl)-7-fluoro-2,2-dimethyl-1,2,3,4-tetrahydronaphthalen-1-yl)carbamate] | – | – | 8.80 | 8.12
25 | COc1cccc(-c2cc3c(cc2F)[C@H](NC(=O)O[C@@H]2CN4CCC2CC4)C(C)(C)CC3)c1 [Example 184, (S)-quinuclidin-3-yl((R)-7-fluoro-6-(3-methoxyphenyl)-2,2-dimethyl-1,2,3,4-tetrahydronaphthalen-1-yl)carbamate] | – | – | 9.52 | 8.64
26 | CCOc1cccc(-c2cc3c(cc2F)[C@H](NC(=O)O[C@@H]2CN4CCC2CC4)C(C)(C)CC3)c1 [Example 185, (S)-quinuclidin-3-yl((R)-6-(3-ethoxyphenyl)-7-fluoro-2,2-dimethyl-1,2,3,4-tetrahydronaphthalen-1-yl)carbamate] | – | – | 9.52 | 8.44
27 | CCCCOc1cccc(-c2cc3c(cc2F)[C@H](NC(=O)O[C@@H]2CN4CCC2CC4)C(C)(C)CC3)c1 [Example 186, (S)-quinuclidin-3-yl((R)-6-(3-butoxyphenyl)-7-fluoro-2,2-dimethyl-1,2,3,4-tetrahydronaphthalen-1-yl)carbamate] | – | – | 9.34 | 9.15
28 | CCc1cccc(-c2cc3c(cc2F)[C@H](NC(=O)O[C@@H]2CN4CCC2CC4)C(C)(C)CC3)c1 [Example 187, (S)-quinuclidin-3-yl((R)-6-(3-ethylphenyl)-7-fluoro-2,2-dimethyl-1,2,3,4-tetrahydronaphthalen-1-yl)carbamate] | – | – | 9.29 | 8.89
29 | CCCc1cccc(-c2cc3c(cc2F)[C@H](NC(=O)O[C@@H]2CN4CCC2CC4)C(C)(C)CC3)c1 [Example 188, (S)-quinuclidin-3-yl((R)-7-fluoro-2,2-dimethyl-6-(3-propylphenyl)-1,2,3,4-tetrahydronaphthalen-1-yl)carbamate] | – | – | 9.08 | 8.57
